Data published in patent US20240342316A1, “A PHARMACEUTICAL COMPOSITION FOR IMAGING” (ASTELLAS PHARMA INC., priority 2021, published 2024).

Key:
[1] = NIR versus white light; cited from earlier work
[2] = Phase 1 single ascending IV bolus dose study: plasma and urine pharmacokinetics; conditions: for t1/2, apparent terminal plasma elimination half-life: healthy participants, n = 4, arithmetic mean
From the text: The study (ClinicalTrials.gov Identifier: NCT03698305) was a randomized, double-blind, placebo-controlled, sequential ascending IV bolus dose group study conducted at a single center (Covance Clinical Research Unit, Inc.) in the United States.
The study population, 30 participants in all, was comprised of 5 cohorts consisting of 6 healthy volunteers (3 females and 3 males) per cohort. […] The study consisted of a screening period, an investigational period, and a follow-up period (FIG. 1). Following successful screening, participants were admitted to the clinic on study day −1.
After at least 5 of 6 patients in a cohort had completed the study procedure, a Dose-Escalation Committee reviewed all PK and safety data, and decided whether to proceed with dose escalation, stop dose escalation, repeat a dose level, or investigate a lower dose level intermediate between the current and prior doses.
Blood and urine samples were collected over a 24-hour period. Participants were discharged on day 2, returned to the clinic for a follow-up visit on day 7, and the study was completed with a follow-up phone call on day 14. To prevent accidental unblinding should the urine be discolored, catheter and tubing collection bags were covered, and participants were prevented from observing these or the collection vials when changed.
Urine interval sampling was between −1 hour and time of dosing, and between each subsequent consecutive urine sample collection time point.
The safety population comprised all participants who received a single dose of study drug. The PK population comprised safety population participants for which data were available for derivation of ≥1 PK parameter. Pharmacokinetic parameters were calculated by noncompartmental analysis using Phoenix WinNonlin version 8.1 and were summarized by treatment group.

In the case of `CN(C)c1ccc2nc3ccc(=[N+](C)C)cc-3sc2c1` [methylene blue], the “NIRF ureter visualization in first-in-human study” value [1] is listed as “did not provide sufficient optical properties to offer any visualization advantage with NIR over white light”.
With `COC1=C(/C=C/C2=[N+](CCC(=O)NCCCO[C@H]3[C@H]4O[C@H]5[C@H](O)[C@@H](O)[C@@H](O[C@H]6[C@H](O)[C@@H](O)[C@@H](O[C@H]7[C@H](O)[C@@H](O)[C@@H](O[C@H]8[C@H](O)[C@@H](O)[C@@H](O[C@H]9[C@H](O)[C@@H](O)[C@@H](O[C@H]%10[C@H](O)[C@@H](O)[C@@H](O[C@@H]([C@@H]3O)[C@@H](CO)O4)O[C@@H]%10CO)O[C@@H]9CO)O[C@@H]8CO)O[C@@H]7CO)O[C@@H]6CO)O[C@@H]5CO)c3ccc4ccccc4c3C2(C)C)CCC/C1=C\C=C1\N(CCC(=O)NCCCO[C@H]2[C@H]3O[C@H]4[C@H](O)[C@@H](O)[C@@H](O[C@H]5[C@H](O)[C@@H](O)[C@@H](O[C@H]6[C@H](O)[C@@H](O)[C@@H](O[C@H]7[C@H](O)[C@@H](O)[C@@H](O[C@H]8[C@H](O)[C@@H](O)[C@@H](O[C@H]9[C@H](O)[C@@H](O)[C@@H](O[C@@H]([C@@H]2O)[C@@H](CO)O3)O[C@@H]9CO)O[C@@H]8CO)O[C@@H]7CO)O[C@@H]6CO)O[C@@H]5CO)O[C@@H]4CO)c2ccc3ccccc3c2C1(C)C` [Pudexacianinium] the “Mean terminal half-life, range across doses” value ([2]; 0.1 mg to 24 mg single IV bolus) was 2.1 to 3.6 h, the “t1/2, apparent terminal plasma elimination half-life” value ([2]; single IV bolus 0.1 mg) was 2.24 h and the “t1/2, apparent terminal plasma elimination half-life” value ([2]; single IV bolus 0.5 mg) was 2.23 h. For the same compound, the “t1/2, apparent terminal plasma elimination half-life” value ([2]; single IV bolus 2 mg) was 2.10 h, the “t1/2, apparent terminal plasma elimination half-life” value ([2]; single IV bolus 8 mg) was 3.58 h and the “t1/2, apparent terminal plasma elimination half-life” value ([2]; single IV bolus 24 mg) was 3.41 h.
